Numbers after ± are expanded uncertainties.
Key:
[1] = refractive index (Na D-line) (dimensionless); conditions: 101.33 kPa, Liquid, Standard Abbe refractometry
[2] = Liquid; for mass density: 293.15 K, 101.33 kPa

Row | Structure (SMILES) | refractive index ([1]; 293.15 K) | mass density [2] | other results
1 | Cc1ccc(O)cc1 [4-methylphenol] | – | – | refractive index ([1]; 298.15 K): 1.5391 ± 0.0007; vapor or sublimation pressure ([2]; 475.35 K): 95.1 ± 3 kPa
2 | Cc1ccccc1O [2-methylphenol] | 1.5468 ± 0.0007 | 1046 ± 1.6 kg/m3 | vapor or sublimation pressure ([2]; 463.65 K): 95.1 ± 3 kPa
3 | Cc1ccc(C)cc1 [1,4-dimethylbenzene] | 1.4858 ± 0.0007 | 861 ± 1.2 kg/m3 | vapor or sublimation pressure ([2]; 408.65 K): 95.1 ± 3 kPa
4 | Cc1cccc(C)c1 [1,3-dimethylbenzene] | 1.4972 ± 0.0007 | 864.4 ± 1.2 kg/m3 | vapor or sublimation pressure ([2]; 410.25 K): 95.1 ± 3 kPa
5 | Cc1cccc(O)c1 [3-methylphenol] | 1.5414 ± 0.0007 | 1034 ± 1.5 kg/m3 | vapor or sublimation pressure ([2]; 473.35 K): 95.1 ± 3 kPa
6 | CN(C)C=O [dimethylformamide] | 1.4305 ± 0.0007 | 948.7 ± 1.4 kg/m3 | vapor or sublimation pressure ([2]; 420.95 K): 95.1 ± 3 kPa
7 | Cc1ccccc1C [1,2-dimethylbenzene] | 1.5055 ± 0.0007 | 880.1 ± 1.3 kg/m3 | vapor or sublimation pressure ([2]; 415.35 K): 95.1 ± 3 kPa

From the NIST ThermoML archive (doi:10.1016/j.fluid.2008.01.020)
